Eleven compounds from patent US11254690B2, “PTEFb inhibiting macrocyclic compounds” (BAYER AKTIENGESELLSCHAFT, priority 2017, dated 2022) can be followed below.

Values joined by “and” are separate entries in the source; they are usually repeats but may differ in a detail not shown here. Equal entries are not always repeated. Bounds are passed on as bounds.

A word on the residence time: it is how long the partners stay bound on average. In general, Kd refers to the constant that tells how readily two partners part at equilibrium. What is called koff is a measure of how fast the partners let go of each other.

One assay deals with HeLa-MaTu-ADR cells. As to the kind of experiment: Proliferation assay, HeLa-MaTu-ADR. The format is cell-based. To be noted: Homo sapiens, 96 h; 4 days, crystal violet; read-out: Inhibition of HeLa-MaTu-ADR cell proliferation IC50. As for the experimental part:
Cultivated tumour cells (HeLa, human cervical tumour cells, ATCC CCL-2; NCI-H460, human non-small cell lung carcinoma cells, ATCC HTB-177; DU 145, hormone-independent human prostate carcinoma cells, ATCC HTB-81; HeLa-MaTu-ADR, multidrug-resistant human cervical carcinoma cells, EPO-GmbH Berlin; Caco-2, human colorectal carcinoma cells, ATCC HTB-37; B16F10, mouse melanoma cells, ATCC CRL-6475) were plated at a density of 5,000 cells/well (DU145, HeLa-MaTu-ADR), 3,000 cells/well (NCI-H460, HeLa), 1,500 cells/well (Caco-2), or 1,000 cells/well (B16F10) in a 96-well multititer plate in 200 μL of their respective growth medium supplemented 10% fetal calf serum. After 24 hours, the cells of one plate (zero-point plate) were stained with crystal violet (see below), while the medium of the other plates was supplemented with the test substances in various concentrations (0 μM, as well as in the range of 0.0001-10 μM; the final concentration of the solvent dimethyl sulfoxide was adjusted to 0.1%) using a Hewlett-Packard HP D300 Digital Dispenser. The cells were incubated for 4 days in the presence of test substances. Cell proliferation was determined by staining the cells with crystal violet: the cells were fixed by adding 20 μl/measuring point of an 11% glutaric aldehyde solution for 15 minutes at room temperature. After three washing cycles of the fixed cells with water, the plates were dried at room temperature. The cells were stained by adding 100 μl/measuring point of a 0.1% crystal violet solution (pH 3.0). After three washing cycles of the stained cells with water, the plates were dried at room temperature. The dye was dissolved by adding 100 μl/measuring point of a 10% acetic acid solution. The extinction was determined by photometry at a wavelength of 595 nm. The change of cell number, in percent, was calculated by normalization of the measured values to the extinction values of the zero-point plate (=0%) and the extinction of the untreated ([…]) cells (=100%). The IC50 values (inhibitory concentration at 50% of maximal effect) were determined by means of a 4 parameter fit. A2780 human ovarian carcinoma cells (ECACC #93112519) and non-adherent MOLM-13 human acute myeloid leukemia cells (DSMZ ACC 554) were seeded at a density of 3,000 cell/well (A2780) or 5,000 cells/well (MOLM-13) in a 96-well multititer plate in 150 μL of growth medium supplemented 10% fetal calf serum. After 24 hours, cell viability of one plate (zero-point plate) was determined with the Cell Titre-Glo Luminescent Cell Viability Assay (Promega), while the medium of the other plates was supplemented with the test substances in various concentrations (0 μM, as well as in the range of 0.0001-10 μM; the final concentration of the solvent dimethyl sulfoxide was adjusted to 0.1%) using a Hewlett-Packard HP D300 Digital Dispenser. Cell viability was assessed after 72-hour exposure with the Cell Titre-Glo Luminescent Cell Viability Assay (Promega). IC50 values (inhibitory concentration at 50% of maximal effect) were determined by means of a 4 parameter fit on measurement data which were normalized to vehicle (DMSO) treated cells (=100%) and measurement readings taken immediately before compound exposure (=0%).

In assay [1] the target is T1, human PTEFb (CDK9/Cyclin T1) (Homo sapiens, UniProt P50750).
T1 construct: purchased ProQinase, Freiburg, Germany
T1 sequence (P50750 whole entry): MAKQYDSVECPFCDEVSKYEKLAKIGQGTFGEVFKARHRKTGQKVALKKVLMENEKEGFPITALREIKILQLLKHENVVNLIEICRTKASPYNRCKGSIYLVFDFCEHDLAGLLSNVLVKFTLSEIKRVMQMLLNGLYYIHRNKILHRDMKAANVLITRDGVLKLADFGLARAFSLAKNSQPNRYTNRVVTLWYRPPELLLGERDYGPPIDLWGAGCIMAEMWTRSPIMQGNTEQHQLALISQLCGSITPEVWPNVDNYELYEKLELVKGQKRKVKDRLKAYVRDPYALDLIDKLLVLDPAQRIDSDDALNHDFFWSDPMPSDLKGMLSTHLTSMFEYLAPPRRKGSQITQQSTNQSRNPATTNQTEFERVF
T1 sequence (O60563 whole entry partner): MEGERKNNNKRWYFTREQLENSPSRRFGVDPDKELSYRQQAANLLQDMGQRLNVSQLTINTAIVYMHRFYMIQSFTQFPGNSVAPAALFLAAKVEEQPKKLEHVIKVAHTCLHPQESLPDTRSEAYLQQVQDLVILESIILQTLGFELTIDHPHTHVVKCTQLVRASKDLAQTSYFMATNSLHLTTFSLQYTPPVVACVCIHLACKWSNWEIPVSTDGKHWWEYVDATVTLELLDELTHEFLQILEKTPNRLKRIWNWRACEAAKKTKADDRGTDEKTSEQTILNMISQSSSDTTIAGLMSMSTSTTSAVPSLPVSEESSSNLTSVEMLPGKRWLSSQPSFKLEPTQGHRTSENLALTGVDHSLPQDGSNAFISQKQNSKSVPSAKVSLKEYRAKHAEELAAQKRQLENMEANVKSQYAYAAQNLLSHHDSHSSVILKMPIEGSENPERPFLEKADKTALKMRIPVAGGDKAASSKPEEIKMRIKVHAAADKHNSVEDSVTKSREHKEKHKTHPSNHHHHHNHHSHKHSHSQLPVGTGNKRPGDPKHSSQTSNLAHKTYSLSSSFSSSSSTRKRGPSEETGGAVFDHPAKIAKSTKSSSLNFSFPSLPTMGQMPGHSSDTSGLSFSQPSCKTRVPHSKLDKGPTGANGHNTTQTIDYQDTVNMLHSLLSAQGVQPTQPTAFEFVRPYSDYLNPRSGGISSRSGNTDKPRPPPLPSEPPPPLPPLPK
Kind of assay: Surface Plasmon Resonance PTEFb. Format: binding. To be noted: SPR, 37° C.; for residence time / Target residence time: 1/koff; for residence time / koff / Target residence time / Dissociation rate constant koff: * = arithmetic means; for residence time: read-out: Target residence time; for Kd: * = arithmetic means of more than one value, read-out: Equilibrium dissociation constant KD; for koff / Dissociation rate constant koff: < = below what is resolvable; for koff: read-out: Dissociation rate constant koff. An excerpt: 8. Surface Plasmon Resonance PTEFb
The term “surface plasmon resonance”, as used herein, refers to an optical phenomenon that allows for the analysis of the reversible associations of biological molecules in real time within a biosensor matrix, for example using the Biacore® system (GE Healthcare Biosciences, Uppsala, Sweden). Biacore® uses the optical properties of surface plasmon resonance (SPR) to detect alterations in the refractive index of a buffer, which changes as molecules in solution interact with the target immobilized on the surface. In brief, proteins are covalently bound to the dextran matrix at a known concentration and a ligand for the protein is injected through the dextran matrix. Near infrared light, directed onto the opposite side of the sensor chip surface is reflected and also induces an evanescent wave in the gold film, which in turn, causes an intensity dip in the reflected light at a particular angle known as the resonance angle. If the refractive index of the sensor chip surface is altered (e.g. by compound binding to the bound protein) a shift occurs in the resonance angle. This angle shift can be measured.
The term “KD”, as used herein, is intended to refer to the equilibrium dissociation constant of a particular compound/target protein complex.
The term “koff”, as used herein, is intended to refer to the off-rate, i.e. the dissociation rate constant of a particular compound/target protein complex.
The term “target residence time”, as used herein, is intended to refer to the inverse of the rate of dissociation rate constant (1/koff) of a particular compound/target protein complex.
The ability of the compounds according to the invention to bind human PTEFb may be determined using surface plasmon resonance (SPR). KD values and koff values may be measured using a Biacore® T200 instrument (GE Healthcare, Uppsala, Sweden).
For SPR measurements, recombinant human PTEFb (CDK9/Cyclin T1 recombinant human active protein kinase purchased from ProQinase, Freiburg, Germany) is immobilized using standard amine coupling (Johnsson B et al, Anal Biochem. 1991 Nov. 1; 198(2):268-77). Briefly, carboxymethylated dextran biosensor chips (CM7, GE Healthcare) are activated with N-ethyl-N′-(3-dimethylaminopropyl)-carbodiimide hydrochloride (EDC) and N-hydroxysuccinimide (NHS) according to the supplier's instructions. Human PTEFb is diluted in 1×HBS-EP+ (GE Healthcare) and injected on the activated chip surface. Subsequently, a 1:1 solution of 1 M ethanolamine-HCl (GE Healthcare) and 1×HBS-EP is injected to block unreacted groups, resulting in approximately 4000 response units (RU) of immobilized protein. A reference surface is generated by treatment with NHS-EDC and ethanolamine-HCl. Compounds are dissolved in 100% dimethylsulfoxide (DMSO, Sigma-Aldrich, Germany) to a concentration of 10 mM and subsequently diluted in running buffer (1×HBS-EP+pH 7.4 [generated from HBS-EP+ Buffer 10× (GE Healthcare): 0.1 M HEPES, 1.5 M NaCl, 30 mM EDTA and 0.5% v/v Surfactant P20], 1% v/v DMSO). For kinetic measurements, serial dilutions of compound (0.78 nM up to 25 nM) are injected over immobilized protein. Binding kinetics is measured at 37° C. with a flow rate of 100 μl/min in running buffer. Compound concentrations are injected for 70 s followed by a dissociation time of 1100 s. The resulting sensorgrams are double-referenced against the reference surface as well as against blank injections.
The double-referenced sensorgrams are fit to a simple reversible Langmuir 1:1 reaction mechanism as implemented in the Biacore® T200 evaluation software 2.0 (GE Healthcare). In cases were full compound dissociation has not occurred at the end of the dissociation phase, the Rmax parameter (response at saturation) is fit as local variable. In all other cases, Rmax is fit as global variable.

Turning to `CC(C)(C)OC(=O)N=S(C)(=O)Cc1cc2cc(c1)OCCCCOc1cc(ccc1F)-c1nc(ncc1F)N2` (racemic) [Example 3, (rac)-tert-butyl [{[3,20-difluoro-13,18-dioxa-5,7,25-triazatetracyclo[17.3.1.1^2,6.1^8,12]pentacosa-1(23),2(25),3,5,8(24),9,11,19,21-nonaen-10-yl]methyl}(methyl)oxido-λ^6-sulfanylidene]carbamate], the IC50 with HeLa-MaTu-ADR cells was found to be 218 nM.

As to `CC1CCCOc2cc(ccc2F)-c2cc(ncc2F)Nc2cc(CS(C)(=N)=O)cc(n2)O1` (single isomer, unassigned) [Example 17, 3,20-difluoro-14-methyl-10-[(S-methylsulfonimidoyl)methyl]-13,18-dioxa-5,7,24-triazatetracyclo[17.3.1.1^2,6.1^8,12]pentacosa-1(23),2(25),3,5,8(24),9,11,19,21-nonaene], in assay [1], the residence time was above 208 min, the Kd is 0.077 nM and the off-rate (koff) was below 8e-05 s⁻¹.

Regarding `CS(=N)(=O)Cc1cc2nc(c1)OCCCCOc1cc(ccc1F)-c1cc(ncc1F)N2` (racemic) [Example 2, (rac)-3,20-difluoro-10-[(S-methylsulfonimidoyl)methyl]-13,18-dioxa-5,7,24-triazatetracyclo[17.3.1.1^2,6.1^8,12]pentacosa-1(23),2(25),3,5,8(24),9,11,19,21-nonaene], in assay [1], the residence time was 75 min, the Kd stood at 1.2 nM and the koff came to 0.00022 s⁻¹. Further, in the assay with HeLa-MaTu-ADR cells, the IC50 was found to be 78 nM.

Turning to `CS(=N)(=O)Cc1cc2cc(c1)OCCCOc1cc(ccc1F)-c1nc(ncc1F)N2` (racemic) [Example 10, (rac)-3,19-difluoro-10-[(S-methylsulfonimidoyl)methyl]-13,17-dioxa-5,7,24-triazatetracyclo[16.3.1.1^2,6.1^8,12]tetracosa-1(22),2(24),3,5,8(23),9,11,18,20-nonaene], the IC50 with HeLa-MaTu-ADR cells came to 155 nM.

Regarding `CC1CCCCOc2cc(ccc2F)-c2cc(ncc2F)Nc2cc(CS(C)(=N)=O)cc(n2)O1` (single isomer, unassigned) [Example 22, 3,21-difluoro-14-methyl-10-[(S-methylsulfonimidoyl)methyl]-13,19-dioxa-5,7,25-triazatetracyclo[18.3.1.1^2,6.1^8,12]hexacosa-1(24),2(26),3,5,8(25),9,11,20,22-nonaene], in assay [1], the Target residence time is 43* min, the Kd is 0.19 nM and the “Dissociation rate constant koff” value is given as 3.9E−4* 1/s.

As to `CS(=N)(=O)Cc1cc2cc(c1)OCCCCOc1c(F)ccc(c1F)-c1nc(ncc1F)N2` (racemic) [Example 8, (rac)-3,20,23-trifluoro-10-[(S-methylsulfonimidoyl)methyl]-13,18-dioxa-5,7,25-triazatetracyclo[17.3.1.1^2,6.1^8,12]pentacosa-1(23),2(25),3,5,8(24),9,11,19,21-nonaene], the IC50 with HeLa-MaTu-ADR cells turned out to be 179 nM.

Consider `CC1CCCOc2cc(ccc2F)-c2cc(ncc2F)Nc2cc(CS(C)(=N)=O)cc(n2)O1` (single isomer, unassigned) [Example 16, 3,20-difluoro-14-methyl-10-[(S-methylsulfonimidoyl)methyl]-13,18-dioxa-5,7,24-triazatetracyclo[17.3.1.1^2,6.1^8,12]pentacosa-1(23),2(25),3,5,8(24),9,11,19,21-nonaene], for which, in assay [1], the Target residence time was > 208 min and 131 min; the “Dissociation rate constant koff” value is < 8e-05 s⁻¹ and 0.00013 s⁻¹.

As for `CC(C)(C)OC(=O)N=S(C)(=O)Cc1cc2cc(c1)OCCCCCOc1cc(ccc1F)-c1nc(ncc1F)N2` (racemic) [Example 5, (rac)-tert-butyl [{[3,21-difluoro-13,19-dioxa-5,7,26-triazatetracyclo[18.3.1.1^2,6.1^8,12]hexacosa-1(24),2(26),3,5,8(25),9,11,20,22-nonaen-10-yl]methyl}(methyl)oxido-λ^6-sulfanylidene]carbamate], in the assay with HeLa-MaTu-ADR cells, the IC50 is 1000 nM.

As for `CS(=N)(=O)Cc1cc2cc(c1)OCCCCCOc1cc(ccc1F)-c1nc(ncc1F)N2` (racemic) [Example 6, (rac)-3,21-difluoro-10-[(S-methylsulfonimidoyl)methyl]-13,19-dioxa-5,7,26-triazatetracyclo[18.3.1.1^2,6.1^8,12]hexacosa-1(24),2(26),3,5,8(25),9,11,20,22-nonaene], the IC50 with HeLa-MaTu-ADR cells amounted to 169 nM.

As to `CC1CCCCOc2cc(ccc2F)-c2cc(ncc2F)Nc2cc(CS(C)(=N)=O)cc(n2)O1` (single isomer, unassigned) [Example 21, 3,21-difluoro-14-methyl-10-[(S-methylsulfonimidoyl)methyl]-13,19-dioxa-5,7,25-triazatetracyclo[18.3.1.1^2,6.1^8,12]hexacosa-1(24),2(26),3,5,8(25),9,11,20,22-nonaene], in assay [1], the Target residence time was 10* min, the dissociation constant (Kd) was found to be 1 nM and the “Dissociation rate constant koff” value is reported as 1.6E−3* 1/s.

In the case of `CC1CCCOc2cc(ccc2F)-c2cc(ncc2F)Nc2cc(CS(C)(=O)=O)cc(n2)O1` (racemic) [Example 28, 3,20-difluoro-14-methyl-10-[(methylsulfonyl)methyl]-13,18-dioxa-5,7,24-triazatetracyclo[17.3.1.1^2,6.1^8,12]pentacosa-1(23),2(25),3,5,8(24),9,11,19,21-nonaene], the Kd in assay [1] was 0.092 nM and 0.091 nM and 0.12 nM.
